Measured values: article PMC8778187, “A New Oxygen Containing Pyclen-Type Ligand as a Manganese(II) Binder for MRI and ^52Mn PET Applications: Equilibrium, Kinetic, Relaxometric, Structural and Radiochemical Studies” (Molecules, 2022)

How the values were obtained:
[1] = Metal challenge of 52Mn-labeled complexes (transmetalation); format: physicochemical; settings: ZnCl2, CuCl2, MgCl2, CaCl2 mixture, room temperature, 7 days
Experimental: Metal challenge of [[^52Mn]Mn(3,9-PC2A)] and [[^52Mn]Mn(3,9-OPC2A)]. 49 µL aqueous solution of each radiolabeled complex (~3.75 MBq) was incubated with a 1:1 mixture of 0.1 mM ZnCl2 and 0.01 mM CuCl2 (1 µL), and a 1:1 mixture of 1.02 mM MgCl2 and 2.28 mM CaCl2 (50 µL) at room temperature. Samples were taken from the mixtures at the beginning and after 1, 2, 3, and 20 h, and 2, 3, and 7 days later. For the analysis of the samples, the above-mentioned radio-TLC method was applied.

[2] = Stability test of 52Mn-labeled complexes in rat serum (radio-TLC); format: in vitro ADME; settings: room temperature, up to 7 days
Experimental: Stability test of [[^52Mn]Mn(3,9-PC2A)] and [[^52Mn]Mn(3,9-OPC2A)] in rat serum. 100 µL aqueous solution of each radiolabeled complex (~7.5 MBq) was mixed with 100 uL of rat serum, and incubated at room temperature. Aliquots were taken and analyzed at the beginning and after 1, 2, 3, and 20 h, and 2, 3, and 7 days later, by the radio-TLC method, as explained mentioned above.

[3] = Octanol/water partition coefficient (logP) of 52Mn-labeled complexes; format: physicochemical
Experimental: Determination of logP values of the [[^52Mn]Mn(3,9-PC2A)] and [[^52Mn]Mn(3,9-OPC2A)] chelates. 100 µL aqueous solution of each radiolabeled complex (~7.5 MBq) was added to 100 µL of octanol. The mixture was shaken with a vortex shaker (5 min, 1000 rpm) and centrifuged (5 min, 10,000 rpm). A total of 3 × 20 µL from the octanol and 3 × 20 µL from the water were pipetted into test tube, respectively. The radioactivity of the samples was measured with a gamma detector.

[4] = EDTA challenge of 52Mn-labeled complexes (transchelation); format: physicochemical; settings: 0.2 M H4EDTA (pH 7.4), room temperature, 7 days
Experimental: EDTA challenge of [[^52Mn]Mn(3,9-PC2A)] and [[^52Mn]Mn(3,9-OPC2A)]. 50 µL aqueous solution of each radiolabeled complex (~3.75 MBq) was incubated with 50 µL of 0.2 M EDTA (pH 7.4) solution at room temperature. Aliquots were taken and analyzed by the radio-TLC method, as mentioned above, at the beginning and after 1, 2, 3, and 20 h, and 2, 3, and 7 days incubation time.

inertness in metal challenge [1] | stability in rat serum [2] | logP [3] | complex dissociated in metal challenge [1] | Structure (SMILES) | transchelation in H4EDTA challenge [4]
stayed intact | remained intact even after seven days | −2.51 | – | O=C([O-])CN1CCNCCN(CC(=O)[O-])Cc2cccc(n2)C1.[52Mn+2] [[[^52Mn]Mn(3,9-PC2A)]] | transchelation was complete
– | remained intact even after seven days | −2.56 | about 30% | O=C([O-])CN1CCOCCN(CC(=O)[O-])Cc2cccc(n2)C1.[52Mn+2] [[[^52Mn]Mn(3,9-OPC2A)]] | slower and was not completed after seven days
